# Patent publication US20110130397A1, “PYRROLINONE COMPOUNDS AS INHIBITORS OF BACTERIAL PEPTIDYL TRNA HYDROLASE AND USES THEREOF” (priority 2006, published 2011)
row,melting point [°C],SMILES
1,204 to 206,CCc1ccc2nc(N3C(=O)C(O)=C(C(=O)c4ccc(C)o4)C3c3ccccc3)sc2c1 (stereo not shown) [Compound 130]
2,222 to 225,CCc1ccc2nc(N3C(=O)C(O)=C(C(=O)c4ccc(C)o4)C3c3ccc(F)cc3)sc2c1 (stereo not shown) [Compound 131]
3,192 to 194,CCc1ccc2nc(N3C(=O)C(O)=C(C(=O)c4ccc(C)o4)C3c3ccc(OC)cc3)sc2c1 (stereo not shown) [Compound 132]
4,236 to 238,CCc1ccc2nc(N3C(=O)C(O)=C(C(=O)c4ccc(C)o4)C3c3ccc(Cl)cc3)sc2c1 (stereo not shown) [Compound 133]
5,197 to 201,CCc1ccc2nc(N3C(=O)C(O)=C(C(=O)c4ccc(C)o4)C3c3ccc(Cl)c(Cl)c3)sc2c1 (stereo not shown) [Compound 134]
6,220 to 222,CCc1ccc2nc(N3C(=O)C(O)=C(C(=O)c4ccc(C)o4)C3c3ccc(C(C)C)cc3)sc2c1 (stereo not shown) [Compound 135]
7,174 to 177,CCc1ccc2nc(N3C(=O)C(O)=C(C(=O)c4ccc(C)o4)C3c3cccc(Cl)c3)sc2c1 (stereo not shown) [Compound 136]
8,138 to 140,CCc1ccc2nc(N3C(=O)C(O)=C(C(=O)c4ccc(C)o4)C3c3ccc(C(F)(F)F)cc3)sc2c1 (stereo not shown) [Compound 137]
9,165 to 169,CCc1ccc2nc(N3C(=O)C(O)=C(C(=O)c4ccc(C)o4)C3c3ccccc3F)sc2c1 (stereo not shown) [Compound 138]
10,> 300,Cc1ccc(C(=O)C2=C(O)C(=O)N(c3nc4ccc(Cl)cc4s3)C2c2cccc([N+](=O)[O-])c2)o1 (stereo not shown) [Compound 139]
11,268 to 269,COc1ccc2nc(N3C(=O)C(O)=C(C(=O)c4ccc(C)o4)C3c3ccccc3F)sc2c1 (stereo not shown) [Compound 151]
12,255 to 257,Cc1ccc(C(=O)C2=C(O)C(=O)N(c3nc4ccc([N+](=O)[O-])cc4s3)C2c2ccccc2F)o1 (stereo not shown) [Compound 152]
13,240 to 242,COc1ccc2nc(N3C(=O)C(O)=C(C(=O)c4ccc(C)o4)C3c3ccco3)sc2c1 (stereo not shown) [Compound 153]
14,250 to 252,COC(=O)c1cccc(C2C(C(=O)c3ccc(C)o3)=C(O)C(=O)N2c2nc3ccc(OC)cc3s2)c1 (stereo not shown) [Compound 154]
15,263 to 264,COc1ccc2nc(N3C(=O)C(O)=C(C(=O)c4ccc(C)o4)C3c3cccc(O)c3)sc2c1 (stereo not shown) [Compound 155]
16,241 to 242,COc1ccc2nc(N3C(=O)C(O)=C(C(=O)c4ccc(C)o4)C3c3ccc(OC)c(O)c3)sc2c1 (stereo not shown) [Compound 156]
17,240 to 241,COc1ccc2nc(N3C(=O)C(O)=C(C(=O)c4ccc(C)o4)C3c3ccccn3)sc2c1 (stereo not shown) [Compound 157]
18,291 to 292,COc1ccc2nc(N3C(=O)C(O)=C(C(=O)c4ccc(C)o4)C3c3cccnc3)sc2c1 (stereo not shown) [Compound 158]
19,244 to 245,CC(=O)c1sc(N2C(=O)C(O)=C(C(=O)c3ccc(C)o3)C2c2ccccc2F)nc1C (stereo not shown) [Compound 159]
20,244 to 245,Cc1ccc(C(=O)C2=C(O)C(=O)N(c3nc4cc(Cl)ccc4o3)C2c2ccccc2F)o1 (stereo not shown) [Compound 160]
21,251 to 252,Cc1ccc(C(=O)C2=C(O)C(=O)N(c3ncc(C)s3)C2c2ccccc2F)o1 (stereo not shown) [Compound 161]
22,> 350,Cc1ccc(C(=O)C2=C(O)C(=O)N(c3nc4c(O)ncnc4[nH]3)C2c2ccccc2F)o1 (stereo not shown) [Compound 162]
23,253 to 254,Cc1ccc(C(=O)C2=C(O)C(=O)N(c3nc4ccccc4s3)C2c2ccccc2F)o1 (stereo not shown) [Compound 163]

row,melting point [°C],SMILES
1,233 to 234,Cc1ccc(C(=O)C2=C(O)C(=O)N(Cc3nn[nH]n3)C2)o1 [Compound 178]
2,208 to 209,Cc1ccc(C(=O)C2=C(O)C(=O)N(c3nc4ccc(S(C)(=O)=O)cc4s3)C2C2CCCCC2)o1 (stereo not shown) [Compound 179]
3,199 to 200,Cc1ccc(C(=O)C2=C(O)C(=O)N(c3nc4ccc(S(C)(=O)=O)cc4s3)C2C2CCOC2)o1 (stereo not shown) [Compound 180]
4,171 to 173,CCCCCC1C(C(=O)c2ccc(C)o2)=C(O)C(=O)N1c1nc2ccc(S(C)(=O)=O)cc2s1 (stereo not shown) [Compound 181]
5,247 to 248,CCOc1ccc2nc(N3C(=O)C(O)=C(C(=O)c4ccc(C)o4)C3c3ccccc3)sc2c1 (stereo not shown) [Compound 182]
6,251 to 252,CCOc1ccc2nc(N3C(=O)C(O)=C(C(=O)c4ccc(C)o4)C3c3ccccc3F)sc2c1 (stereo not shown) [Compound 183]
7,256 to 257,CCOc1ccc2nc(N3C(=O)C(O)=C(C(=O)c4ccc(C)o4)C3c3cccc([N+](=O)[O-])c3)sc2c1 (stereo not shown) [Compound 184]
8,166 to 167,CCOc1ccc2nc(N3C(=O)C(O)=C(C(=O)c4ccc(C)o4)C3C3CCCCC3)sc2c1 (stereo not shown) [Compound 185]
9,214 to 215,CCOc1ccc2nc(N3C(=O)C(O)=C(C(=O)c4ccc(C)o4)C3c3cccc(OCc4ccccc4)c3)sc2c1 (stereo not shown) [Compound 186]
10,191 to 192,CCCCOc1ccc(C2C(C(=O)c3ccc(C)o3)=C(O)C(=O)N2c2nc3ccc(OCC)cc3s2)cc1 (stereo not shown) [Compound 187]
11,249 to 250,Cc1ccc(C(=O)C2=C(O)C(=O)N(c3ncccn3)C2c2ccccc2F)o1 (stereo not shown) [Compound 188]
12,235 to 236,Cc1ccc(C(=O)C2=C(O)C(=O)N(c3ccncn3)C2c2ccccc2F)o1 (stereo not shown) [Compound 189]
13,185 to 186,CCOc1ccc2nc(N3C(=O)C(O)=C(C(=O)c4ccc(C)o4)C3C3CCOC3)sc2c1 (stereo not shown) [Compound 190]
14,106 to 109,Cc1ccc(C(=O)C2=C(O)C(=O)N(c3ncnc4c3ncn4C3OC(CO)C(O)C3O)C2c2ccccc2F)o1 (stereo not shown) [Compound 217]
15,256 to 258,Cc1ccc(C(=O)C2=C(O)C(=O)N(c3ncnc4[nH]ncc34)C2c2ccccc2F)o1 (stereo not shown) [Compound 218]
16,170 to 173,Cc1ccc(C(=O)C2=C(O)C(=O)N(c3ncnc4[nH]cnc34)C2c2ccccc2F)o1 (stereo not shown) [Compound 219]
17,226 to 227,CCOc1ccc2nc(N3C(=O)C(O)=C(C(=O)c4ccc(C)o4)C3c3cccc(C#N)c3)sc2c1 (stereo not shown) [Compound 220]
18,259 to 260,CCOc1ccc2nc(N3C(=O)C(O)=C(C(=O)c4ccc(C)o4)C3c3ccc(O)c(O)c3)sc2c1 (stereo not shown) [Compound 221]
19,248 to 249,CCOc1ccc2nc(N3C(=O)C(O)=C(C(=O)c4ccc(C)o4)C3c3cccc(F)c3)sc2c1 (stereo not shown) [Compound 222]
20,254 to 255,CCOc1ccc2nc(N3C(=O)C(O)=C(C(=O)c4ccc(C)o4)C3c3cccc(O)c3)sc2c1 (stereo not shown) [Compound 223]
21,266 to 267,Cc1ccc(C(=O)C2=C(O)C(=O)N(c3ncnc4[nH]cnc34)C2c2cccc([N+](=O)[O-])c2)o1 (stereo not shown) [Compound 224]
22,222 to 223,Cc1ccc(C(=O)C2=C(O)C(=O)N(c3ncnc4[nH]ncc34)C2c2cccc([N+](=O)[O-])c2)o1 (stereo not shown) [Compound 225]
23,227 to 229,Cc1ccc(C(=O)C2=C(O)C(=O)N(c3nc4cccnc4s3)C2c2ccccc2F)o1 (stereo not shown) [Compound 245]

row,melting point [°C],SMILES
1,251 to 252,Cc1ccc(C(=O)C2=C(O)C(=O)N(c3nc4cccnc4s3)C2c2cccc(C#N)c2)o1 (stereo not shown) [Compound 246]
2,248 to 249,Cc1ccc(C(=O)C2=C(O)C(=O)N(c3nc4cccnc4s3)C2c2ccc3c(c2)OCO3)o1 (stereo not shown) [Compound 247]
3,243 to 245,Cc1ccc(C(=O)C2=C(O)C(=O)N(c3nc4cccnc4s3)C2c2ccc(O)c(C(=O)O)c2)o1 (stereo not shown) [Compound 248]
4,220 to 221,COC(=O)c1cccc(C2C(C(=O)c3ccc(C)o3)=C(O)C(=O)N2c2nc3cccnc3s2)c1 (stereo not shown) [Compound 249]
5,227 to 228,CCOc1ccc2nc(N3C(=O)C(O)=C(C(=O)c4ccc(C)o4)C3c3sc4ccccc4c3C)sc2c1 (stereo not shown) [Compound 250]
6,230 to 231,CCOc1ccc2nc(N3C(=O)C(O)=C(C(=O)c4ccc(C)o4)C3c3ccc4c(c3)OCO4)sc2c1 (stereo not shown) [Compound 251]
7,260 to 261,CCOc1ccc2nc(N3C(=O)C(O)=C(C(=O)c4ccc(C)o4)C3c3ccc4ccccc4n3)sc2c1 (stereo not shown) [Compound 252]
8,114 to 115,CCOc1ccc2nc(N3C(=O)C(OC(C)=O)=C(C(=O)c4ccc(C)o4)C3c3ccc(OCCOC(C)=O)cc3)sc2c1 (stereo not shown) [Compound 253]
9,251 to 252,CCOc1ccc2nc(N3C(=O)C(O)=C(C(=O)c4ccc(C)o4)C3c3ccc(O)c(C(=O)O)c3)sc2c1 (stereo not shown) [Compound 254]
10,228 to 229,CCOc1ccc2nc(N3C(=O)C(O)=C(C(=O)c4ccc(C)o4)C3c3cccc(C(=O)OC)c3)sc2c1 (stereo not shown) [Compound 255]
11,187 to 188,CCOc1ccc2nc(N3C(=O)C(O)=C(C(=O)c4ccc(C)o4)C3c3ccc(-c4cccc([N+](=O)[O-])c4)o3)sc2c1 (stereo not shown) [Compound 256]
12,235 to 236,CCOc1ccc2nc(N3C(=O)C(O)=C(C(=O)c4ccc(C)o4)C3c3cccs3)sc2c1 (stereo not shown) [Compound 257]
13,291 to 292,Cc1ccc(C(=O)C2=C(O)C(=O)N(c3nc(N4CCOCC4)c4nc[nH]c4n3)C2c2ccccc2)o1 (stereo not shown) [Compound 283]
14,280 to 282,Cc1ccc(C(=O)C2=C(O)C(=O)N(c3nc(N4CCOCC4)c4nc[nH]c4n3)C2c2cccc([N+](=O)[O-])c2)o1 (stereo not shown) [Compound 284]
15,297 to 299,Cc1ccc(C(=O)C2=C(O)C(=O)N(c3nc(N4CCOCC4)c4nc[nH]c4n3)C2c2ccccc2F)o1 (stereo not shown) [Compound 285]
16,238 to 239,CC(=O)C1=C(O)C(=O)N(c2nc3ccc(Cl)cc3s2)C1c1ccc(F)cc1 (stereo not shown) [Compound 420]
17,239 to 240,CC(C)(C)C(=O)C1=C(O)C(=O)N(c2nc3ccc(Cl)cc3s2)C1c1ccc(F)cc1 (stereo not shown) [Compound 421]
18,236 to 237,CCOC(=O)C1=C(O)C(=O)N(c2nc3ccc(Cl)cc3s2)C1c1ccc(F)cc1 (stereo not shown) [Compound 422]
19,238 to 239,CC(=O)C1=C(O)C(=O)N(c2nc3ccc(F)cc3s2)C1c1ccc(F)cc1 (stereo not shown) [Compound 423]
20,232 to 233,CC(C)(C)C(=O)C1=C(O)C(=O)N(c2nc3ccc(F)cc3s2)C1c1ccc(F)cc1 (stereo not shown) [Compound 424]
21,218 to 219,CCOC(=O)C1=C(O)C(=O)N(c2nc3ccc(F)cc3s2)C1c1ccc(F)cc1 (stereo not shown) [Compound 425]
